Laboratory results published in the supplement of paper PMC10307832.

Assays:
Experiment in all cases: relative viability (nuclei count vs DMSO), 5 days (fraction); higher = more cells survive
[1] = compound: Cc1ccc2nc(NCCN)c3ncc(C)n3c2c1 + Cc1nc(NC(=O)N2CCC[C@H]2C(N)=O)sc1-c1ccnc(C(C)(C)C(F)(F)F)c1 [Alpelisib] (partner 2 µM)
Outline: (§1)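 Dosing by pin tool came one day after lung cancer cell lines were seeded in 1536-well plates, using either one drug or a fixed anchor-drug dose plus five library-drug doses (not always all listed) in √10 steps. After 5 days, nuclei were counted on 4× images. Relative viability is treated-well nuclei count divided by vehicle-well nuclei count, and values are medians of duplicate plates.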

[2] = compound: Cc1ccc2nc(NCCN)c3ncc(C)n3c2c1 + Cc1nc(Nc2ncc(C(=O)Nc3c(C)cccc3Cl)s2)cc(N2CCN(CCO)CC2)n1 [Dasatinib] (partner 0.075 µM)
Outline: as §1

Salubrinal + Foretinib = compound: O=C(/C=C/c1ccccc1)NC(NC(=S)Nc1cccc2cccnc12)C(Cl)(Cl)Cl [Salubrinal] + COc1cc2c(Oc3ccc(NC(=O)C4(C(=O)Nc5ccc(F)cc5)CC4)cc3F)ccnc2cc1OCCCN1CCOCC1 [Foretinib] (partner 0.25 µM)
Outline: as §1

Salubrinal + Crizotinib = compound: O=C(/C=C/c1ccccc1)NC(NC(=S)Nc1cccc2cccnc12)C(Cl)(Cl)Cl [Salubrinal] + C[C@@H](Oc1cc(-c2cnn(C3CCNCC3)c2)cnc1N)c1c(Cl)ccc(F)c1Cl [Crizotinib] (partner 1 µM)
Outline: as §1

Cell Line | relative viability ([1]; first compound 0.04 µM) | relative viability ([1]; first compound 0.1265 µM) | relative viability ([1]; first compound 0.4 µM) | relative viability ([1]; first compound 1.265 µM) | relative viability ([1]; first compound 4 µM) | relative viability ([2]; first compound 0.04 µM) | relative viability ([2]; first compound 0.1265 µM) | relative viability ([2]; first compound 0.4 µM) | relative viability ([2]; first compound 1.265 µM) | relative viability ([2]; first compound 4 µM) | relative viability (Salubrinal + Foretinib; first compound 0.08 µM) | relative viability (Salubrinal + Foretinib; first compound 0.253 µM) | relative viability (Salubrinal + Foretinib; first compound 0.8 µM) | relative viability (Salubrinal + Foretinib; first compound 2.53 µM) | relative viability (Salubrinal + Foretinib; first compound 8 µM) | relative viability (Salubrinal + Crizotinib; first compound 0.08 µM) | relative viability (Salubrinal + Crizotinib; first compound 0.253 µM) | relative viability (Salubrinal + Crizotinib; first compound 0.8 µM) | relative viability (Salubrinal + Crizotinib; first compound 2.53 µM) | relative viability (Salubrinal + Crizotinib; first compound 8 µM)
NCI-H650 | 1.15 | 0.922 | 1.1 | 0.997 | 0.975 | 0.49 | 0.449 | 0.464 | 0.431 | 0.448 | 1.06 | 1.19 | 1.02 | 1.1 | 1.05 | 0.701 | 0.656 | 0.792 | 0.637 | 0.765
NCI-H661 | 0.82 | 0.79 | 0.812 |  | 0.474 | 0.927 | 0.943 | 0.88 | 0.835 | 0.748 | 0.996 | 1.06 | 1.05 | 0.991 | 1.02 | 0.934 |  | 1.1 | 1.01 | 1.17
NCI-H727 | 0.54 | 0.618 | 0.62 | 0.599 | 0.471 | 0.4 |  | 0.338 | 0.321 | 0.365 | 1.09 | 0.856 | 1.06 | 0.778 | 0.898 | 0.943 | 0.559 | 1.03 | 0.999 | 0.84
NCI-H838 | 1.01 | 0.961 | 0.938 | 0.883 | 0.899 | 0.347 | 0.336 | 0.251 | 0.231 | 0.261 | 1.13 | 1.11 | 1.06 | 1.02 | 1.06 | 1.08 | 0.719 | 0.854 | 0.951 | 0.82
NCI-H1355 | 0.783 | 0.862 | 0.819 | 0.763 | 0.797 | 0.712 | 0.728 | 0.678 | 0.667 | 0.638 | 1.08 | 1.01 | 0.977 | 0.951 | 0.883 | 1.18 | 1.12 | 1.12 | 1.12 | 1.03
NCI-H1437 | 0.926 | 0.914 | 1.02 | 0.904 | 0.907 | 0.379 | 0.419 | 0.438 | 0.399 | 0.351 | 1.3 | 1.23 | 1.3 | 1.25 | 1.29 | 0.975 | 0.77 | 1.02 | 0.909 | 0.758
NCI-H1563 | 0.902 | 0.962 | 1.07 | 1.13 | 0.905 | 0.459 | 0.488 | 0.539 | 0.433 | 0.454 | 0.952 | 0.919 | 0.903 | 0.929 | 0.866 | 0.853 | 0.859 | 0.878 | 0.851 | 0.962
NCI-H1651 | 0.996 | 0.885 | 0.905 | 0.936 | 0.834 | 0.472 | 0.441 | 0.422 | 0.395 | 0.392 | 1.01 | 0.759 | 1.02 | 0.748 | 0.772 | 0.923 | 0.864 | 0.925 | 0.858 | 0.9
NCI-H1666 | 0.836 | 0.906 | 1.13 | 0.945 | 0.613 | 0.788 | 0.781 | 0.849 | 0.604 | 0.77 | 0.987 | 0.924 | 0.98 | 0.999 | 1.01 | 1.17 | 0.852 | 1.14 | 0.784 | 0.94
NCI-H1734 | 0.699 | 0.634 | 0.668 | 0.605 | 0.685 | 0.515 | 0.456 | 0.474 | 0.447 | 0.409 | 0.944 | 0.774 | 0.981 | 0.841 | 0.779 | 0.694 | 0.774 | 0.842 | 0.674 | 0.772
NCI-H1755 | 0.978 | 0.928 | 0.898 | 0.962 | 0.908 | 0.475 | 0.423 | 0.445 | 0.359 | 0.393 | 0.95 | 0.928 | 0.897 | 0.911 | 0.937 | 0.991 | 0.738 | 1 | 0.874 | 0.917
NCI-H1915 | 0.999 |  | 1.1 | 1.02 | 1.07 | 0.334 | 0.328 |  | 0.291 | 0.25 | 1.11 | 0.932 | 1.28 | 1.14 | 1.08 | 0.994 | 0.643 | 1.03 | 0.875 | 0.836
NCI-H1944 | 0.821 | 0.832 | 0.869 | 0.823 | 0.909 | 0.242 | 0.216 | 0.212 | 0.269 | 0.248 | 0.871 | 0.987 | 0.885 | 0.913 | 0.904 | 1.22 | 1.12 | 1.29 | 1.08 | 1.21
NCI-H1975 | 0.618 | 0.551 | 0.677 | 0.643 | 0.5 | 0.409 | 0.387 | 0.347 | 0.359 | 0.304 | 1.05 | 0.86 | 1 | 0.944 | 0.923 | 1.07 | 0.722 | 1.06 | 0.992 | 0.816
NCI-H1993 | 0.69 | 0.666 | 0.649 | 0.625 | 0.693 | 0.463 | 0.651 | 0.533 | 0.497 | 0.539 | 0.818 | 0.767 | 0.792 | 0.736 | 0.713 | 0.795 | 0.856 | 0.794 | 0.909 | 0.941
NCI-H2009 | 1.23 | 1.17 | 1.16 | 1.19 | 1.05 | 0.391 | 0.284 | 0.313 | 0.283 | 0.263 | 1.28 | 1.2 | 1.27 | 1.22 | 1.24 | 1.02 | 0.972 | 0.955 | 0.983 | 0.976
